From patent publication US4429126A, “Sodium salt of 4-oxo-10-(2,3-dimethylpentanamido)-4H-pyrimido[1,2-c]quinozoline-3-carbo xylic acid” (Fujisawa Pharmaceutical Co., Ltd., priority 1982, dated 1984)

System: PCA (Passive Cutaneous Anaphylaxis) reaction
Assay: TEST I: Inhibitory effect on PCA (Passive Cutaneous Anaphylaxis) reaction (64 fold diluted antiserum)
Type: in vivo, male SD (Sprague-Dawley) strain rats
Settings: for Inhibitory effect (%), Intravenous administration (10 mg/kg) / inhibition in vivo at 10 mg/kg: 5 minutes before antigen challenge, intravenous; for Inhibitory effect (%), Oral administration (100 mg/kg): 60 minutes before antigen challenge; for inhibition in vivo at 10 mg/kg: Rattus norvegicus, read-out: Inhibitory effect (%), Intravenous administration (10 mg/kg)
Description: A solution of egg albumin (2 mg) in B. pertussis-diphtheria-tetanus mixed vaccine (1 ml) was mixed with Freund incomplete adjuvant (1 ml) to give an emulsion. The emulsion was given subcutaneously in a single dose of 1 ml divided equally (0.25 ml) to the four foot pads of male SD (Sprague-Dawley) strain rats aged 8 weeks, each weighing about 300 g.
10 days after the immunization, blood samples were collected from femoral artery of the rats and allowed to stand under ice-cooling for 5 hours. The separated supernatant was centrifuged at 4° C. (10,000 r.p.m.×1 hour). The antisera thus obtained were stored at -80° C. prior to use.
Male SD-strain rats aged 8 weeks, weighing 290 to 330 g, were used for PCA reaction with the homologus reaginic antiserum as prepared above. Each 0.1 ml of 64 fold diluted antiserum were injected intradermally at separate sites on the back of rats clipped free of hair, and 48 hours later, 1 ml of aqueous solution containing each 5 mg of the egg albumin and Evans blue was injected intravenously to evoke PCA reaction. Test compound was given to the animals orally 60 minutes or intravenously 5 minutes before the challenge with antigen. Control group received vehicle. Each dose group consisted of 5 animals. One hour after the challenge with antigen, the animals were sacrificed and then skinned. Dye spots caused with antiserum were investigated for their size on the reversed side of the skin, respectively. The results were expressed by percent inhibition values calculated from averaged values of the longest and shortest diameters for each spot in comparison with those in control group.

| Molecule | Inhibitory effect (%), Intravenous administration (10 mg/kg) [%] | Inhibitory effect (%), Oral administration (100 mg/kg) [%] | inhibition in vivo at 10 mg/kg [%] |
| --- | --- | --- | --- |
| 4-oxo-4H-pyrimido[1,2-c]quinazoline-3-carboxylic acid [Example 27] | 100 |  |  |
| 4-oxo-10-(2-ethylbutyramido)-4H-pyrimido[1,2-C]quinazoline-3-carboxylic acid [Test compound No. 64] | 39.8 |  |  |
| 4-oxo-10-(2-methylpropionamido)-4H-pyrimido[1,2-C]quinazoline-3-carboxylicacid [Test compound No. 63] | 100 |  |  |
| 4-oxo-10-(3-cyclopentylpropionamido)-4H-pyrimido[1,2-C]quinazoline-3-carboxylic acid [Example 53] | 85.0 |  |  |
| 4-oxo-10-cyclohexanecarboxamido-4H-pyrimido[1,2-C]quinazoline-3-carboxylicacid [Example 52] | 100 |  |  |
| 4-oxo-10-pivalamido-4H-pyrimido[1,2-c]quinazoline-3-carboxyic acid [Test compound No. 60] |  | 75.8 |  |
| 4H-pyrimido[1,2-c]quinazoline-4-one [Example 26] | 100 |  |  |
| CCOC(=O)C(=CNc1ncnc2ccc(NC(=O)C(C)C)cc12)C(=O)OCC [Example 16, diethyl [(6-isobutyramido-4-quinazolinylamino)methylene]propanedioate] |  | 51.6 | 100 |
| CCOC(=O)C(=CNc1ncnc2ccccc12)C(=O)OCC [Test compound No. 1, diethyl[(4-quinazolinylamino)methylene]propanedioate] |  |  | 100 |
| CCOC(=O)C(=CNc1ncnc2ccc(CC)cc12)C(=O)OCC [Test compound No. 3, diethyl [(6-ethyl-4-quinazolinylamino)methylene]propanedioate] |  |  | 100 |
| CCOC(=O)C(=CNc1ncnc2ccc(C)cc12)C(=O)OCC [compound 2] |  |  | 100 |
| CCCc1ccc2ncnc(NC=C(C(=O)OCC)C(=O)OCC)c2c1 [compound 4] |  |  | 85.9 |
| CCOC(=O)C(=CNc1ncnc2ccc(N(C)C)cc12)C(=O)OCC [compound 11] |  |  | 100 |
| CCOC(=O)C(=CNc1ncnc2ccc(N3CCN(C)CC3)cc12)C(=O)OCC [compound 12] |  |  | 51.2 |
| CCOC(=O)C(=CNc1ncnc2ccc(NC(C)=O)cc12)C(=O)OCC [compound 13] |  |  | 100 |
| CCOC(=O)C(=CNc1ncnc2ccc(NC(=O)CC)cc12)C(=O)OCC [compound 14] |  | 77.4 |  |
| CCOC(=O)C(=O)Nc1ccc2ncnc(NC=C(C(=O)OCC)C(=O)OCC)c2c1 [compound 17] |  |  | 100 |
| CCOC(=O)C(=CNc1nc(OC)nc2ccccc12)C(=O)OCC [compound 20] |  |  | 37.6 |
| CCOC(=O)C(=CNc1nc(=O)n(C)c2ccccc12)C(=O)OCC [compound 22] |  |  | 100 |
| CCOC(=O)c1cnc2c3ccccc3ncn2c1=O [compound 23] |  |  | 100 |
| CCOC(=O)c1cnc2c3cc(N4CCN(C)CC4)ccc3ncn2c1=O [compound 34] |  |  | 100 |

| Molecule | Inhibitory effect (%), Intravenous administration (10 mg/kg) [%] | Inhibitory effect (%), Oral administration (100 mg/kg) [%] | inhibition in vivo at 10 mg/kg [%] |
| --- | --- | --- | --- |
| Diethyl [(6-acetamido-4-quinazolinylamino)methylene]propanedioate [Test compound No. 13] | 100 |  |  |
| diethyl 4,9-dioxo-4H,9H-pyrimido[1,2-c]pyrimido[1,2-a]quinazoline-3,8-dicarboxylate [Example 25] | 100 |  |  |
| diethyl [(6-amino-4-quinazolinylamino)methylene]propanedioate [Example 15] |  | 58.1 |  |
| diethyl [(6-nitro-4-quinazolinylamino)methylene]propanedioate [Test compound No. 8] | 24.4 |  |  |
| diethyl [[6-(2-ethylbutyramido)-4-quinazolinylamino]methylene]propanedioate [Example 54] | 48.4 |  |  |
| diethyl [{6-(3,3-dimethylbutyramido)-4-quinazolinylamino}methylene]propanedioate [Example 29] | 100 |  |  |
| diethyl [{6-methanesulfonamido-4-quinazolinylamino}methylene]propanedioate [Example 31] | 64.9 |  |  |
| dimethyl [[6-(2,3-dimethylpentanamido)-4-quinazolinylamino]methylene]propanedioate [Example 57] | 100 | 100 |  |
| dimethyl [[6-cyclohexanecarboxamido-4-quinazolinylamino]methylene]propanedioate [Example 44] | 0 | 49.1 |  |
| dimethyl [{6-pivalamido-4-quinazolinylamino}methylene]propanedioate [Example 30] | 100 |  |  |
| ethyl 4-oxo-4H-pyrimido[1,2-c]quinazoline-3-carboxylate [Test compound No. 23] | 75.4 |  |  |
| ethyl 4-oxo-10-(2-ethylbutyramido)-4H-pyrimido[1,2-C]quinazoline-3-carboxylate [Example 55] | 91.0 |  |  |
| ethyl 4-oxo-10-(3,3-dimethylbutyramido)-4H-pyrimido[1,2-c]quinazoline-3-carboxylate [Test compound No. 61] |  | 74.2 |  |
| ethyl 4-oxo-10-(3-cyclopentylpropionamido)-4H-pyrimido[1,2-C]quinazoline-3-carboxylate [Example 56] | 100 | 24.2 |  |
| methyl 4-oxo-10-(2-ethylbutyramido)-4H-pyrimido[1,2-C]quinazoline-3-carboxylate [Example 46] | 76.3 |  |  |
| methyl 4-oxo-10-(2-methylpropionamido)-4H-pyrimido[1,2-C]quinazoline-3-carboxylate [Example 47] | 100 |  |  |
| methyl 4-oxo-10-(3,3-dimethylbutyramido)-4H-pyrimido[1,2-c]quinazoline-3-carboxylate [Example 38] | 100 |  |  |
| methyl 4-oxo-10-cyclohexanecarboxamido-4H-pyrimido[1,2-C]quinazoline-3-carboxylate [Example 48] | 100 | 57.5 |  |
| methyl 4-oxo-10-pivalamido-4H-pyrimido[1,2-c]quinazoline-3-carboxylate [Test compound No. 59] |  | 72.7 |  |
| tetraethyl 2,2-[2,4-quinazolinediylbis(iminomethylidyne)]bispropanedioate [Example 8] | 52.7 |  |  |
